For series [1] the following is noted: pH 7.4.
Series [2] can be described thus: physchem. Conditions: buffer, pH 7.4.
A short description of series [3]: physchem. Conditions: buffer, pH 7.4. The source holds these as a separate data set.
The conditions of series [4]: pH 7.4. This is another data set of the same source.
For series [5] the following is noted: reported in WO 2013/059194; cited from earlier work.
Series [6] can be described thus: UV-vis method for pKa determination of compound 4 (Example 20). The class given is physicochemical. Conditions: 0.10 M phosphate buffer, 25° C., read-out: pKa (ring nitrogen proton). The protocol: A 1 mM solution of compound 4 is prepared in acetonitrile. To a cuvette containing 3.0 mL of 0.10 M phosphate buffer of the desired pH at 25° C. is added 50 μL of the compound 4 solution. The solution is mixed quickly by rapidly drawing up and dispensing the solution with a pipette. Absorbance spectra are collected immediately after the solution has mixed and settled.

Marks after values point to notes of the source that are not given here. A value given as a limit tells only on which side of the number the result lay.

A word on the half-life: it is how long it takes for the measured level to halve. Low values mean rapid decline, high ones slow decline. For the compound `CC1(NO)C(=O)NC(=O)NC1=O` [Compound 17, 5-(N-hydroxylamino)-5-methyl-barbituric acid], the “k (rate of appearance of BA byproduct, single exponential fit)” value in series [1] is 0.00025 s⁻¹. The compound further gave a half-life in the series “physchem [2]” of 0.767 h.
In the case of `C=CCC1(NO)C(=O)NC(=O)NC1=O` [Compound 9, 5-(N-hydroxylamino)-5-(2-propen-1-yl)-barbituric acid], the “k (rate of appearance of BA byproduct, single exponential fit)” value in series [1] stood at 0.00013 s⁻¹. Further, the half-life in the series “physchem [2]” is 1.5 h.
For the compound `CCCC(C)C1(NO)C(=O)NC(=O)NC1=O` (stereo not drawn) [Compound 12, 5-(N-hydroxylamino)-5-(1-methylbutyl)-barbituric acid], in “physchem [3]”, the half-life came to 38.5 h. In series [4], the HNO yield came to 102; the “k (rate of disappearance of compound and appearance of BA byproduct, single exponential fit)” value was determined as 5e-06 s⁻¹.
For `O=C1NC(=O)C(Cc2ccccc2Cl)(NO)C(=O)N1` [Compound 14, 5-(N-hydroxylamino)-5-(2-chlorobenzyl)-barbituric acid], the “k (rate of appearance of BA byproduct, single exponential fit)” value in series [1] worked out at 0.00029 s⁻¹. Further, in “physchem [2]”, the half-life was 0.683 h.
Consider `O=C1NC(=O)C(Cc2cccs2)(NO)C(=O)N1` [Compound 16, 5-(N-hydroxylamino)-5-(2-thienylmethyl)-barbituric acid], for which the “k (rate of appearance of BA byproduct, single exponential fit)” value in series [1] turned out to be 0.00029 s⁻¹. In “physchem [2]”, this compound yielded a half-life of 0.667 h.
Broadly, the melting point is the temperature, or range, at which the solid turns liquid. Compound `CN1C(=O)N(C)C(=O)C(Cc2ccc(Cl)cc2)(NO)C1=O` [Compound 3, 5-(N-hydroxylamino)-5-(4-chlorobenzyl)-N,N-dimethylbarbituric acid] registered a melting point of 155 to 157 °C. Also, the “k (rate of appearance of BA byproduct, single exponential fit)” value in series [1] came out at 0.00025 s⁻¹. Moreover, in series [4], the HNO yield is given as 92^d; the “k (rate of disappearance of compound and appearance of BA byproduct, single exponential fit)” value was determined as 0.0006 s⁻¹.
With `O=C1NC(=O)C(NO)(c2ccccc2)C(=O)N1` [Compound 8, 5-(N-hydroxylamino)-5-phenyl-barbituric acid], the “k (rate of appearance of BA byproduct, single exponential fit)” value in series [1] is 0.00082 s⁻¹. In “physchem [2]”, this compound came in with a half-life of 0.233 h.
In turn, `CCC(C)C1(NO)C(=O)NC(=O)NC1=O` (stereo not drawn) [Compound 18, 5-(N-hydroxylamino)-5-(1-methylpropyl)-barbituric acid] registered a half-life in the series “physchem [3]” of 32.9 h. Further, in series [4], the HNO yield is 102; the “k (rate of disappearance of compound and appearance of BA byproduct, single exponential fit)” value was 5.9e-06 s⁻¹.
With `CN1C(=O)N(C)C(=O)C(Cc2ccccc2)(NO)C1=O` [Compound 1, 5-(N-hydroxylamino)-5-benzyl-N,N-dimethylbarbituric acid], the melting point fell in the range of 155 to 157 °C. Also, the “k (rate of appearance of BA byproduct, single exponential fit)” value in series [1] was determined as 0.00015 s⁻¹. Moreover, in series [4], the HNO yield is 99^d; the “k (rate of disappearance of compound and appearance of BA byproduct, single exponential fit)” value was found to be 0.00031 s⁻¹.
As to `CC(C)CC1(NO)C(=O)NC(=O)NC1=O` [Compound 10, 5-(N-hydroxylamino)-5-(2-methylpropyl)-barbituric acid], the “k (rate of appearance of BA byproduct, single exponential fit)” value in series [1] is 0.0005 s⁻¹. Also, the half-life in “physchem [2]” worked out at 0.383 h.
On to `CCC1(NO)C(=O)N(C)C(=O)N(C)C1=O` [5-ethyl HABA, 5-(N-hydroxylamine)-5-ethyl-N,N-dimethylbarbituric acid], for which the HNO production result in series [5] is given as “less than the desired amount of HNO”.
For the compound `COc1ccc(CC2(NO)C(=O)N(C)C(=O)N(C)C2=O)cc1` [Compound 2, 5-(N-hydroxylamino)-5-(4-methoxybenzyl)-N,N-dimethylbarbituric acid], the melting point is 108 to 110 °C. Also, the “k (rate of appearance of BA byproduct, single exponential fit)” value in series [1] was 8e-05 s⁻¹. Further, in series [4], the HNO yield was 96^d; the “k (rate of disappearance of compound and appearance of BA byproduct, single exponential fit)” value came out at 0.00015 s⁻¹.
With `COc1ccc(CC2(NO)C(=O)NC(=O)NC2=O)cc1` [Compound 6, 5-(N-hydroxylamino)-5-(4-methoxybenzyl)-barbituric acid], the “k (rate of appearance of BA byproduct, single exponential fit)” value in series [1] was determined as 8.8e-05 s⁻¹. For the same compound, the half-life in “physchem [2]” was found to be 2.2 h.
For `O=C1NC(=O)C(Cc2ccc(Cl)cc2)(NO)C(=O)N1` [Compound 7, 5-(N-hydroxylamino)-5-(4-chlorobenzyl)-barbituric acid], in series [1], the “k (rate of appearance of BA byproduct, single exponential fit)” value stood at 0.00016 s⁻¹. The half-life in the series “physchem [2]” amounted to 1.18 h.
The pKa is the pH at which an ionisable group is half protonated. The compound `CCC1(NO)C(=O)NC(=O)NC1=O` [Compound 4, 5-(N-hydroxylamino)-5-ethyl-barbituric acid] gave a melting point greater than 300 °C. Further, in series [6], the pKa was roughly 7.4. For the same compound, the “k (rate of appearance of BA byproduct, single exponential fit)” value in series [1] was determined as 3.7e-05 s⁻¹. In series [4], the HNO yield was 97^d; the “k (rate of disappearance of compound and appearance of BA byproduct, single exponential fit)” value turned out to be 0.00011 s⁻¹.
In the series “physchem [3]”, `CC(C)C1(NO)C(=O)NC(=O)NC1=O` [Compound 11, 5-(N-hydroxylamino)-5-(1-methylethyl)-barbituric acid] came in with a half-life of 62.4 h. Also, in series [4], the HNO yield is listed as 98; the “k (rate of disappearance of compound and appearance of BA byproduct, single exponential fit)” value was 3.1e-06 s⁻¹.
In the case of `O=C1NC(=O)C(Cc2ccccc2)(NO)C(=O)N1` [Compound 5, 5-(N-hydroxylamino)-5-benzyl-barbituric acid], in series [1], the “k (rate of appearance of BA byproduct, single exponential fit)” value was 0.00013 s⁻¹. The compound further gave a half-life in “physchem [2]” of 1.53 h.

(Values after patent US9464061B2, “N-hydroxylamino-barbituric acid derivatives” (priority 2014, dated 2016).)
